From publication PMC12396409, “Screening and hit evaluation of a microbial metabolite library against the pathogenic Plasmodium falciparum and Toxoplasma gondii parasites” (International Journal for Parasitology: Drugs and Drug …, 2025)
Like-named read-outs stand apart in the source and are kept apart here.

Columns and labels:
[1] = test system: P. falciparum 3D7 parasites; test: P. falciparum growth inhibition assay, 1-cycle (72 h treatment), SYBR DNA staining (library screen at 2 μg/mL and dose-response); assay type: cell-based, Plasmodium falciparum
[2] = test system: P. falciparum 3D7 parasites; test: P. falciparum growth inhibition assay, 2-cycle (120 h treatment), delayed-death screen and dose-response; assay type: cell-based, Plasmodium falciparum
[3] = test system: T. gondii RH strain (RH-Tub-eYFP) tachyzoites; test: microbe, parasite or virus in culture; assay type: cell-based, Toxoplasma gondii; conditions: 72 h; for percent parasite growth at 2 µg/mL: Toxoplasma gondii; for Mean: mean of both replicates, growth (% of control); for Replicate 1 / Replicate 2: values are growth (% of control)
[4] = P. falciparum, 72 h, screen at 2 μg/mL, replicate 1
[5] = P. falciparum, 72 h, screen at 2 μg/mL, replicate 2
[6] = P. falciparum, 120 h, screen at 2 μg/mL, replicate 1
[7] = P. falciparum, 120 h, screen at 2 μg/mL, replicate 2
[8] = T. gondii, screen at 2 μg/mL, replicate 1
[9] = T. gondii, screen at 2 μg/mL, replicate 2
[10] = library screen at 2 μg/mL, % growth, replicate 1, read-out: Tg_72h_%Growth_Rep1
[11] = library screen at 2 μg/mL, % growth, replicate 2, read-out: Tg_72h_%Growth_Rep2
[12] = Plasmodium falciparum, 3D7, 72 h, P. falciparum, 72 h, screen at 2 μg/mL, replicate 1, read-out: Pf_72h_%Growth_Rep1
[13] = Plasmodium falciparum, 3D7, 72 h, P. falciparum, 72 h, screen at 2 μg/mL, replicate 2, read-out: Pf_72h_%Growth_Rep2
[14] = Plasmodium falciparum, 3D7, 120 h, P. falciparum, 120 h, screen at 2 μg/mL, replicate 1, read-out: Pf_120h_%Growth_Rep1
[15] = Plasmodium falciparum, 3D7, 120 h, P. falciparum, 120 h, screen at 2 μg/mL, replicate 2, read-out: Pf_120h_%Growth_Rep2
[16] = T. gondii, screen at 2 μg/mL, replicate 1, read-out: Tg_72h_%Growth_Rep1
[17] = T. gondii, screen at 2 μg/mL, replicate 2, read-out: Tg_72h_%Growth_Rep2
[18] = library screen at 2 μg/mL, 72 h, % growth, replicate 1
[19] = library screen at 2 μg/mL, 72 h, % growth, replicate 2
[20] = library screen at 2 μg/mL, 120 h, % growth, replicate 1
[21] = library screen at 2 μg/mL, 120 h, % growth, replicate 2
[22] = library screen at 2 μg/mL, % growth, replicate 1
[23] = library screen at 2 μg/mL, % growth, replicate 2

SMILES: COc1ccc2c3c(c4cc(OC)c(OC)cc4c2c1)C[C@H]1CCCCN1C3 [Cryptopleurine]
- activity in the screen against P. falciparum ([1]; 2 μg/mL, 72 h, active = ≥80 % growth inhibition): activity against both parasites
- IC50 ([1]; 3D7, 72 h treatment, mean ± S.D., n ≥ 3, read-out: IC50 (μM), P. falciparum): 0.008 ± 0.003 µM
- Pf_72h_%Growth_Rep1 [1, 4]: 8.09%
- Pf_72h_%Growth_Rep2 [1, 5]: -1.65%
- Screen (P. falciparum) ([1]; library screen at 2 μg/mL, 3D7, 72 h, DD from the 120 h timepoint): A, A
- Pf_120h_%Growth_Rep1 [2, 6]: 9.09%
- Pf_120h_%Growth_Rep2 [2, 7]: 3.06%
- activity in the screen against T. gondii ([3]; 2 μg/mL, active = ≥80 % growth inhibition): activity against both parasites
- IC50 ([3]; RH strain, mean ± S.D., n ≥ 3, read-out: IC50 (μM), T. gondii (converted)): 0.011 µM
- Tg_72h_%Growth_Rep1 [3, 8]: 6.11%
- Tg_72h_%Growth_Rep2 [3, 9]: 2.53%
- Screen (T. gondii) ([3]; library screen at 2 μg/mL, RH strain): A, A

SMILES: C[C@@]1(CO)[C@H](O)CC[C@@]2(C)[C@H]1CC[C@H]1C[C@@H]3C[C@@]12CC[C@]3(O)CO [Aphidicolin]
- activity at 2 µg/mL ([1]; Plasmodium falciparum, 3D7, library screen at 2 μg/mL, 72 h, % growth, replicate 1, read-out: Pf_72h_%Growth_Rep1): 7%
- activity at 2 µg/mL ([1]; Plasmodium falciparum, 3D7, library screen at 2 μg/mL, 72 h, % growth, replicate 2, read-out: Pf_72h_%Growth_Rep2): 4.32%
- activity at 2 µg/mL ([2]; Plasmodium falciparum, 3D7, library screen at 2 μg/mL, 120 h, % growth, replicate 1, read-out: Pf_120h_%Growth_Rep1): 10.5%
- activity at 2 µg/mL ([2]; Plasmodium falciparum, 3D7, library screen at 2 μg/mL, 120 h, % growth, replicate 2, read-out: Pf_120h_%Growth_Rep2): -6.36%
- percent parasite growth at 2 µg/mL [3, 10]: 1.91%
- percent parasite growth at 2 µg/mL [3, 11]: 0.58%

SMILES: CO[C@@H]1[C@H](OC(=O)/C=C/C=C/C=C/C=C/C(=O)O)CC[C@]2(CO2)[C@H]1[C@@]1(C)O[C@@H]1CC=C(C)C [Fumagillin]
- activity at 2 µg/mL ([1]; Plasmodium falciparum, 3D7, 72 h, library screen at 2 μg/mL, 72 h, % growth, replicate 1, read-out: Pf_72h_%Growth_Rep1): 10.6%
- activity at 2 µg/mL ([1]; Plasmodium falciparum, 3D7, 72 h, library screen at 2 μg/mL, 72 h, % growth, replicate 2, read-out: Pf_72h_%Growth_Rep2): 6.01%
- activity at 2 µg/mL ([2]; Plasmodium falciparum, 3D7, 120 h, library screen at 2 μg/mL, 120 h, % growth, replicate 1, read-out: Pf_120h_%Growth_Rep1): 7.49%
- activity at 2 µg/mL ([2]; Plasmodium falciparum, 3D7, 120 h, library screen at 2 μg/mL, 120 h, % growth, replicate 2, read-out: Pf_120h_%Growth_Rep2): 7.63%
- percent parasite growth at 2 µg/mL [3, 10]: 31%
- percent parasite growth at 2 µg/mL [3, 11]: 30.7%

SMILES: CC1=C(O)C(=O)[C@@H]2O[C@@H]2C1=O [Terreic acid]
- activity at 2 µg/mL [1, 12]: 89.2%
- activity at 2 µg/mL [1, 13]: 121%
- activity at 2 µg/mL [2, 14]: 100%
- activity at 2 µg/mL [2, 15]: 98%
- percent parasite growth at 2 µg/mL [3, 16]: 132%
- percent parasite growth at 2 µg/mL [3, 17]: 83%

SMILES: C=C1[C@@H](C)[C@H]2[C@H](Cc3ccccc3)NC(=O)[C@]23OC(=O)/C=C/[C@H](O)CCC[C@@H](C)C/C=C/[C@H]3[C@@H]1O [Cytochalasin B]
- activity at 2 µg/mL [1, 12]: 8.23%
- activity at 2 µg/mL [1, 13]: 10.3%
- activity at 2 µg/mL [2, 14]: -1.09%
- activity at 2 µg/mL [2, 15]: 8.72%
- percent parasite growth at 2 µg/mL [3, 16]: 31.3%
- percent parasite growth at 2 µg/mL [3, 17]: 60.5%

SMILES: Cc1c2c(c(O)c3c(O)ccc(Cl)c13)C(=O)C1(O)C(O)=C(C(N)=O)C(=O)C(N(C)C)C1C2.Cl (stereo not drawn)
- Pf_72h_%Growth_Rep1 [1, 18]: 85.99%
- Pf_72h_%Growth_Rep2 [1, 19]: 99.34%
- Pf_120h_%Growth_Rep1 [2, 20]: 95.25%
- Pf_120h_%Growth_Rep2 [2, 21]: 115.61%
- Tg_72h_%Growth_Rep1 [3, 22]: 119.39%
- Tg_72h_%Growth_Rep2 [3, 23]: 96.29%

SMILES: CO[C@@H]1[C@@H](OC(N)=O)[C@@H](O)[C@H](Oc2ccc3c(O)c(NC(=O)c4ccc(O)c(CC=C(C)C)c4)c(=O)oc3c2C)OC1(C)C [Novobiocin, reference compound]
- activity at 2 µg/mL ([1]; Plasmodium falciparum, 3D7, 72 h, P. falciparum, 2 μg/mL, 72 h; read-out: 1) Growth (%) at 72 h): 81.4%
- 3) Fold change (72 h/120 h) [2]: 5.7
- activity at 2 µg/mL ([2]; Plasmodium falciparum, 3D7, 120 h, P. falciparum, 2 μg/mL, 120 h; read-out: 2) Growth (%) at 120 h): 14.2%
- Mean ([3]; T. gondii, 2 μg/mL): 51.41
- Replicate 1 ([3]; T. gondii, 2 μg/mL): 9.17
- Replicate 2 ([3]; T. gondii, 2 μg/mL): 93.65

SMILES: CCCC(=O)O[C@H]1[C@H](C)O[C@@H](O[C@H]2[C@H](N(C)C)[C@@H](O)[C@H](O[C@H]3[C@@H](CC=O)C[C@@H](C)[C@@H](O)/C=C/C=C/C[C@@H](C)OC(=O)C[C@@H](OC(C)=O)[C@@H]3OC)O[C@@H]2C)C[C@@]1(C)O [Leucomycin A4]
- 1) Growth (%) at 72 h ([1]; P. falciparum, 2 μg/mL, 72 h): 46.88%
- 2) Growth (%) at 120 h ([2]; P. falciparum, 2 μg/mL, 120 h): 1.51%
- 3) Fold change (72 h/120 h) ([2]; P. falciparum, growth at 72 h / growth at 120 h, 2 μg/mL): 31.0
- Mean ([3]; T. gondii, 2 μg/mL): 23.43
- Replicate 1 ([3]; T. gondii, 2 μg/mL): 19.43
- Replicate 2 ([3]; T. gondii, 2 μg/mL): 27.43

SMILES: CCCCCC(=O)C(CCCC)c1oc(=O)c(CCCC)c(O)c1CCCC (stereo not drawn) [Elasnin]
- Pf_72h_%Growth_Rep1 [1, 18]: 87.43%
- Pf_72h_%Growth_Rep2 [1, 19]: 85.83%
- Pf_120h_%Growth_Rep1 [2, 20]: 85.68%
- Pf_120h_%Growth_Rep2 [2, 21]: 81.51%
- Tg_72h_%Growth_Rep1 [3, 22]: 103.90%
- Tg_72h_%Growth_Rep2 [3, 23]: 75.71%

SMILES: O=C(O)c1nccc2c1[nH]c1ccccc12 [Carboline 1-carboxylic acid, β-]
- Pf_72h_%Growth_Rep1 [1, 4]: 89.67%
- Pf_72h_%Growth_Rep2 [1, 5]: 90.01%
- Pf_120h_%Growth_Rep1 [2, 6]: 166.51%
- Pf_120h_%Growth_Rep2 [2, 7]: 96.73%
- Tg_72h_%Growth_Rep1 [3, 8]: 4.34%
- Tg_72h_%Growth_Rep2 [3, 9]: 7.03%

SMILES: C=C1C(=O)C[C@@H]2[C@H]3CC[C@@H](C(=O)O)[C@@]12CC3(C)C [Terrecyclic Acid]
- Pf_72h_%Growth_Rep1 [1, 4]: 17.94%
- Pf_72h_%Growth_Rep2 [1, 5]: 13.49%
- Pf_120h_%Growth_Rep1 [2, 6]: 35.11%
- Pf_120h_%Growth_Rep2 [2, 7]: 10.18%
- Tg_72h_%Growth_Rep1 [3, 8]: 40.31%
- Tg_72h_%Growth_Rep2 [3, 9]: 50.53%

SMILES: CN1CCC2(c3cccc4c3NC3N(C)CCC43c3cccc4c3NC3N(C)CCC43C34CCN(C)C3Nc3c(C56CCN(C)C5Nc5ccccc56)cccc34)c3ccccc3NC12 (stereo not drawn) [Psychotridine]
- Pf_72h_%Growth_Rep1 ([1]; P. falciparum, 72 h, parasite screen 2 μg/mL, % growth, replicate 1): 4.01%
- Pf_72h_%Growth_Rep2 ([1]; P. falciparum, 72 h, parasite screen 2 μg/mL, % growth, replicate 2): -3.25%
- Pf_120h_%Growth_Rep1 ([2]; P. falciparum, 120 h, parasite screen 2 μg/mL, % growth, replicate 1): 15.63%
- Pf_120h_%Growth_Rep2 ([2]; P. falciparum, 120 h, parasite screen 2 μg/mL, % growth, replicate 2): 4.30%
- Mean ([3]; T. gondii, 2 μg/mL): 39.57
- Replicate 1 ([3]; T. gondii, 2 μg/mL): 17.15
- Replicate 2 ([3]; T. gondii, 2 μg/mL): 61.99
- Tg_72h_%Growth_Rep1 ([3]; T. gondii, parasite screen 2 μg/mL, % growth, replicate 1): 17.15%
- Tg_72h_%Growth_Rep2 ([3]; T. gondii, parasite screen 2 μg/mL, % growth, replicate 2): 61.99%

SMILES: O=C(O)[C@H]1/C(=C/CO)O[C@@H]2CC(=O)N21 [Clavulanate potassium]
- activity at 2 µg/mL ([1]; Plasmodium falciparum, 3D7, P. falciparum, 72 h, screen at 2 μg/mL, replicate 1, read-out: Pf_72h_%Growth_Rep1): 85.1%
- activity at 2 µg/mL ([1]; Plasmodium falciparum, 3D7, P. falciparum, 72 h, screen at 2 μg/mL, replicate 2, read-out: Pf_72h_%Growth_Rep2): 88.1%
- activity at 2 µg/mL ([2]; Plasmodium falciparum, 3D7, P. falciparum, 120 h, screen at 2 μg/mL, replicate 1, read-out: Pf_120h_%Growth_Rep1): 88.4%
- activity at 2 µg/mL ([2]; Plasmodium falciparum, 3D7, P. falciparum, 120 h, screen at 2 μg/mL, replicate 2, read-out: Pf_120h_%Growth_Rep2): 86.6%
- percent parasite growth at 2 µg/mL [3, 16]: 102%
- percent parasite growth at 2 µg/mL [3, 17]: 102%

SMILES: C=C[C@@H](CO)[C@H]1CCN2CCc3c([nH]c4ccccc34)[C@@H]2C1 [Anthirine]
- Pf_72h_%Growth_Rep1 [1, 18]: 73.25%
- Pf_72h_%Growth_Rep2 [1, 19]: 82.22%
- Pf_120h_%Growth_Rep1 [2, 20]: 66.95%
- Pf_120h_%Growth_Rep2 [2, 21]: 48.16%
- Tg_72h_%Growth_Rep1 [3, 22]: 43.71%
- Tg_72h_%Growth_Rep2 [3, 23]: 53.47%
